Measurements from US11970512B2, “Amphotericin B derivatives with improved therapeutic index” (The Board of Trustees of the University of Illinois, priority 2013, dated 2024).
In brackets after ≈: the same amount, converted by molar mass. Where two headings read alike, the source gives them in different places. Values belong to the molecule of their own block, whether it stands above or below them.

Columns and labels:
Saccharomyces cerevisiae = assay: Broth microdilution assay (MIC) against Saccharomyces cerevisiae; type: cell-based; details: read-out: MIC (μM) S.cerevisiae
Description: (§1) With efficient access to this novel AmB chemotype, ureas 2-4 were compared to AmB and a range of previously reported AmB derivatives in an in vitro antifungal and human cell toxicity screen. Yeast toxicity was measured with broth microdilution assays (MIC) against Saccharomyces cerevisiae. Human cell toxicity was studied by determining the amount of compound required to cause 90% hemolysis of human erythrocytes (EH90). […] Methyl esterification (AmBME) retains antifungal activity at 0.25 μM against S. cerevisiae, while decreasing hemolysis concentration to one third that seen with AmB. […] Hemolysis activity remained similar to AmBME and C41MeAmB. Bis-amino alkylated amide derivative AmBNR2 was previously shown to moderately improve the therapeutic index.^[19]
(§2) Each derivative proposed herein is tested for biological activity against both yeast and human cells to determine its therapeutic index. A broth microdilution experiment determines the MIC (minimum inhibitory concentration) of each derivative against S. cerevisiae and the clinically relevant C. albicans, thereby establishing the antifungal activity of each novel derivative. To test for toxicity against human cells, each compound is exposed to a hemolysis assay against red blood cells which determines the concentration required to cause 90% lysis of human red blood cells (EH90). Additionally, each compound is exposed to human primary renal tubule cells to determine the toxicity of each compound against kidney cells. These assays when compared against the known values of AmB against the same cell lines determine the improvement in therapeutic index of each compound.

Candida albicans = assay: Broth microdilution assay (MIC) against C. albicans; type: cell-based; details: read-out: MIC (μM) against C. albicans
Description: Urea derivatives 2-4 maintain potent antifungal activity ranging from 0.125 μM to 3 μM against S. cerevisiae. […] AmBCU required 324 μM to cause 90% hemolysis in red blood cells, more than 30× required by AmB. Encouraged by this initial therapeutic index screen the urea series was further tested against the clinically relevant fungal cell line Candida albicans. C. albicans is the most common human fungal infection. AmB inhibits yeast grown of C. albicans at 0.25 μM. Similar to the trend seen with S. cerevisiae, the potency of urea derivatives […] increased with increasing amount of cationic character. AmBAU, AmBMU, and AmBCU require 0.25, 0.5, and 1 μM respectively (Table 2).
as §2

[1] = Acute toxicity, single intravenous administration to healthy mice, lethality; type: in vivo
Description: FIG. 40 is a graph depicting lethality in healthy mice of single intravenous administration in the doses indicated of AmB, AmBMU, or AmBAU.
In a separate set of experiments, acute toxicity was evaluated by single intravenous administration of 1, 2, 4, 8, 16, 32, or 64 mg/kg AmB or its derivatives to healthy mice, followed by monitoring for lethality. […] AmBAU was drastically less toxic with >50% lethality not being reached until the 64 mg/kg dosage group.

human erythrocytes = type: cell-based; details: for EH90 as multiple of that observed with AmB: human
Description: as §1, §2

C. albicans = assay: Mouse model of disseminated candidiasis, kidney fungal burden; type: in vivo; details: neutropenic mice; for reduction of kidney fungal burden relative to AmB: single intraperitoneal 16 mg/kg dose, 24 hours post inoculation; for reducing the fungal burden present in the kidneys, compared with AmB (in words): single intraperitoneal dose, all three tested doses (1, 4, and 16 mg/kg)
Description: FIG. 39 is a group of three graphs depicting kidney fungal load (colony forming units, cfu) in neutropenic mice inoculated intravenously with C. albicans and then treated two hours later with a single intraperitoneal dose of vehicle control, AmB, AmBMU, or AmBAU. FIG. 39A, 1 mg/kg AmB, AmBMU, or AmBAU. FIG. 39B, 4 mg/kg AmB, AmBMU, or AmBAU. FIG. 39C, 16 mg/kg AmB, AmBMU, or AmBAU.
The antifungal efficacies of AmBMU and AmBAU were tested in a mouse model of disseminated candidiasis. In this experiment neutropenic mice were infected with C. albicans via the tail vein, and then 2 hours post infection the mice were treated with a single intraperitoneal injection of AmB, AmBMU, or AmBAU. Then 2, 6, 12, and 24 hours post infection the mice were sacrificed, and the fungal burden present in their kidneys was quantified. […] The differences were most pronounced at the 16 mg/kg dose at 24 hours post inoculation. Relative to AmB, AmBMU reduced the fungal burden by 1.2 log units (p≤0.001), and AmBAU reduced the fungal burden by nearly 3 log units (p≤0.0001).

yeast = details: in vitro studies; cited from earlier work
[2] = Saccharomyces cerevisiae, broth microdilution
[3] = Candida albicans, broth microdilution

SMILES: C[C@@H]1[C@H](O)[C@@H](C)/C=C/C=C/C=C/C=C/C=C/C=C/C=C/[C@H](O[C@@H]2O[C@H](C)[C@@H](O)[C@H](N)[C@@H]2O)C[C@@H]2O[C@](O)(C[C@@H](O)C[C@@H](O)[C@H](O)CC[C@@H](O)C[C@@H](O)CC(=O)O[C@H]1C)C[C@H](O)[C@H]2C(=O)O [AmB, amphotericin B]
- MIC (Saccharomyces cerevisiae; broth microdilution): 0.5 µM (≈ 0.462 µg/mL)
- MIC (Candida albicans; broth microdilution): 0.25 µM (≈ 0.231 µg/mL)
- lethality ([1]; single intravenous 4 mg/kg): All mice in the 4 mg/kg AmB dosage group died within seconds

SMILES: CC1OC(O[C@H]2/C=C/C=C/C=C/C=C/C=C/C=C/C=C/[C@H](C)[C@@H](O)[C@@H](C)[C@H](C)OC(=O)C[C@H](O)C[C@H](O)CC[C@@H](O)[C@H](O)C[C@H](O)C[C@]3(O)C[C@H](O)[C@@H](NC(=O)NCCN)C(C2)O3)C(O)C(N)C1O (stereo partly drawn) [AmBAU]
- MIC (Saccharomyces cerevisiae; Saccharomyces cerevisiae): 0.125 µM (≈ 0.123 µg/mL)
- cell-killing activity / toxicity towards human red blood cells (in words) (human erythrocytes): drastically decreased toxicity towards red blood cells
- EH90 (μM) red blood cells (human erythrocytes; amount of compound required to cause 90% hemolysis of human erythrocytes): >500 µM
- MIC (Candida albicans; Candida albicans): 0.25 µM (≈ 0.245 µg/mL)
- reduction of kidney fungal burden relative to AmB (C. albicans): ~3 log units
- reducing the fungal burden present in the kidneys, compared with AmB (in words) (C. albicans): substantially more effective than AmB
- dosage group at which >50% lethality was reached ([1]; single intravenous administration): 64 mg/kg

- MIC (Saccharomyces cerevisiae; [2]): 3 µM (≈ 3.03 µg/mL)
- EH90 as multiple of that observed with AmB (human erythrocytes): more than 30 ×
- MIC (Candida albicans; [3]): 1 µM (≈ 1.01 µg/mL)
SMILES: CC1OC(O[C@H]2/C=C/C=C/C=C/C=C/C=C/C=C/C=C/[C@H](C)[C@@H](O)[C@@H](C)[C@H](C)OC(=O)C[C@H](O)C[C@H](O)CC[C@@H](O)[C@H](O)C[C@H](O)C[C@]3(O)C[C@H](O)[C@@H](NC(=O)NCCC(=O)O)C(C2)O3)C(O)C(N)C1O (stereo partly drawn) [AmBCU]
- cell-killing activity / toxicity towards human red blood cells (in words) (human erythrocytes): drastically decreased toxicity towards red blood cells

- MIC (Saccharomyces cerevisiae; broth microdilution): 0.25 µM (≈ 0.234 µg/mL)
- EH90 (μM) red blood cells (human erythrocytes): 15.32 ± 3.39 µM
SMILES: CNC(=O)[C@H]1[C@@H]2C[C@@H](O[C@@H]3O[C@H](C)[C@@H](O)[C@H](N)[C@@H]3O)/C=C/C=C/C=C/C=C/C=C/C=C/C=C/[C@H](C)[C@@H](O)[C@@H](C)[C@H](C)OC(=O)C[C@H](O)C[C@H](O)CC[C@@H](O)[C@H](O)C[C@H](O)C[C@](O)(C[C@@H]1O)O2 [AmBMA, reference compound]

SMILES: COC(=O)[C@H]1[C@@H]2C[C@@H](O[C@@H]3O[C@H](C)[C@@H](O)[C@H](N)[C@@H]3O)/C=C/C=C/C=C/C=C/C=C/C=C/C=C/[C@H](C)[C@@H](O)[C@@H](C)[C@H](C)OC(=O)C[C@H](O)C[C@H](O)CC[C@@H](O)[C@H](O)C[C@H](O)C[C@](O)(C[C@@H]1O)O2 [AmBME, reference compound]
- MIC (Saccharomyces cerevisiae; broth microdilution): 0.25 µM (≈ 0.235 µg/mL)
- EH90 (μM) red blood cells (human erythrocytes): 30.67 ± 5.38 µM
- hemolysis concentration relative to AmB (human erythrocytes): one third

SMILES: CNC(=O)N[C@H]1C2C[C@@H](OC3OC(C)C(O)C(N)C3O)/C=C/C=C/C=C/C=C/C=C/C=C/C=C/[C@H](C)[C@@H](O)[C@@H](C)[C@H](C)OC(=O)C[C@H](O)C[C@H](O)CC[C@@H](O)[C@H](O)C[C@H](O)C[C@](O)(C[C@@H]1O)O2 (stereo partly drawn) [AmBMU]
- MIC (Saccharomyces cerevisiae; [2]): 0.25 µM (≈ 0.238 µg/mL)
- cell-killing activity / toxicity towards human red blood cells (in words) (human erythrocytes): drastically decreased toxicity towards red blood cells
- EH90 as multiple of that observed with AmB (human erythrocytes): greater than 45 ×
- MIC (Candida albicans; [3]): 0.5 µM (≈ 0.476 µg/mL)
- reduction of kidney fungal burden relative to AmB (C. albicans): 1.2 log units
- reducing the fungal burden present in the kidneys, compared with AmB (in words) (C. albicans): substantially more effective than AmB
- lethality ([1]; single intravenous 64 mg/kg): survived with no observable toxicity

SMILES: CC1C=CC=CC=CC=CC=CC=CC=CC(OC2CC(N)C(O)C(C)O2)CC2OC(O)(CC(O)CC(O)C(O)CCC(O)CC(O)CC(=O)OC(C)C(C)C1O)CC(O)C2C(=O)O (stereo not drawn) [C2′deOAmB]
- toxicity to yeast (yeast): toxic to yeast
